{"source": "ChEMBL document CHEMBL6153170", "about": "(J Med Chem, 2025)", "key": {"Jurkat [1]": {"system": "Jurkat", "assay": "Cytotoxicity against human Jurkat T cells assessed as reduction in cell viability at 3.3 to 10 uM incubated for 48 hrs", "assay_type": "functional, cell-based", "settings": "dose 3.3-10 µM"}, "[2]": {"target": "T1, Protein deacetylase HDAC6 (Mus musculus) (UniProt Q9Z2V5)", "T1 sequence (whole entry)": "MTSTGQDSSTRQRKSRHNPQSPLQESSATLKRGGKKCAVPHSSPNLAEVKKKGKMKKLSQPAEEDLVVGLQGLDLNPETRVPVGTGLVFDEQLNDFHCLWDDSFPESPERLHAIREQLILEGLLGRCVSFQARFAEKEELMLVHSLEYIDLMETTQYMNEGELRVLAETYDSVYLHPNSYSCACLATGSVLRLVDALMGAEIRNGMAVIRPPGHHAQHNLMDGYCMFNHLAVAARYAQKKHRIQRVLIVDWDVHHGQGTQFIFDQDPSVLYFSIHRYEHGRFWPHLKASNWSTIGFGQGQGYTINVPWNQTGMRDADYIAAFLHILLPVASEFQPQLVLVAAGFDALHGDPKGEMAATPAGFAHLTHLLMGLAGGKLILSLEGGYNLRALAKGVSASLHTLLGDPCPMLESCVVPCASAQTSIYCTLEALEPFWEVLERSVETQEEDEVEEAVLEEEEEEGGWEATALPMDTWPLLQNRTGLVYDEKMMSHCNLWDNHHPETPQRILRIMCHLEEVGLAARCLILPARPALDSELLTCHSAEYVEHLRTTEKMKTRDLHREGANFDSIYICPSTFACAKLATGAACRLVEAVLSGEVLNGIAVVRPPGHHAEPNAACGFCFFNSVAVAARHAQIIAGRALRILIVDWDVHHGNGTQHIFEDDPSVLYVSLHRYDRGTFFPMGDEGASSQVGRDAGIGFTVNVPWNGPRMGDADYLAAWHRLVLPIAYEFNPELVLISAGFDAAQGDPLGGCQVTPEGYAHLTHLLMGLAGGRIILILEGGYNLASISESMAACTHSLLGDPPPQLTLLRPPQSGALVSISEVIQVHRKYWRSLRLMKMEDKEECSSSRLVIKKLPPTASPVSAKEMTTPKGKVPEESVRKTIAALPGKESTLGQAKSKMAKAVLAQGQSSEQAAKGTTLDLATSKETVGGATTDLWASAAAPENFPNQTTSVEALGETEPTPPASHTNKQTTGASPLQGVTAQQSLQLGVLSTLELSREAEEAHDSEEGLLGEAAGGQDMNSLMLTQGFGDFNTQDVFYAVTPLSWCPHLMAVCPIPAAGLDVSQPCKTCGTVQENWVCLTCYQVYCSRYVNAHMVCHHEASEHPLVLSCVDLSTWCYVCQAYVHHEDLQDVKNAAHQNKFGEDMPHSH", "assay": "Inhibition of HDAC6 in mouse B16-F10 cells assessed as increase in acetylated alpha-tubulin level incubated for 12 hrs by Western blot analysis", "assay_type": "cell-based", "settings": "dose 0.1-2 µM"}, "[3]": {"target": "T2, Histone deacetylase 8 (Homo sapiens) (UniProt Q9BY41)", "T2 sequence (whole entry)": "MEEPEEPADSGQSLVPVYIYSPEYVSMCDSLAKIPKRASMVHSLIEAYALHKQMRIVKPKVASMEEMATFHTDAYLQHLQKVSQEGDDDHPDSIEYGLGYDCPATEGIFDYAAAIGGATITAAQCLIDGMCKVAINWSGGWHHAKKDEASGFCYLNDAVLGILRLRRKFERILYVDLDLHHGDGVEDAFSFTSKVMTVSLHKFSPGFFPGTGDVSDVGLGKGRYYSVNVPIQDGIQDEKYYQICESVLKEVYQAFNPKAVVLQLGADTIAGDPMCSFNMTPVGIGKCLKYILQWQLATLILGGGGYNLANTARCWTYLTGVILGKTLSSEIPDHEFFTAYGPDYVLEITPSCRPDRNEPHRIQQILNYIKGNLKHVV", "assay": "Inhibition of HDAC8 in human Jurkat T cells assessed as increase in acetylated SMC3 level incubated for 12 hrs by Western blot analysis", "assay_type": "cell-based"}, "Jurkat [4]": {"system": "Jurkat", "assay": "Effect on acetylated histone H3 protein level in human Jurkat T cells at 0.1 to 2 uM incubated for 12 hrs by Western blot analysis", "assay_type": "functional, cell-based", "settings": "dose 0.1-2 µM"}, "B16-F10 [5]": {"system": "B16-F10", "assay": "Downregulation of p-STAT3 expression level in mouse B16-F10 cells at 0.1 to 2 uM incubated for 24 hrs by Western blot analysis", "assay_type": "functional, cell-based", "settings": "dose 0.1-2 µM"}, "[6]": {"assay": "AUC (0 to t) in male Sprague-Dawley rat at 2 mg/kg, iv measured after 48 hrs by triple quadrupole mass spectrometric analysis", "assay_type": "ADME, organism-based", "settings": "in vivo"}, "[7]": {"assay": "MRT (0 to infinity) in male Sprague-Dawley rat at 2 mg/kg, iv measured after 48 hrs by triple quadrupole mass spectrometric analysis", "assay_type": "ADME, organism-based", "settings": "in vivo"}, "[8]": {"assay": "Cmax in male Sprague-Dawley rat at 10 mg/kg, po measured after 48 hrs by triple quadrupole mass spectrometric analysis", "assay_type": "ADME, organism-based", "settings": "in vivo"}, "[9]": {"assay": "Apparent clearance during terminal phase in male Sprague-Dawley rat at 2 mg/kg, iv measured after 48 hrs by triple quadrupole mass spectrometric analysis", "assay_type": "ADME, organism-based", "settings": "in vivo"}, "B16-F10 [10]": {"system": "B16-F10", "assay": "Antitumor immunity activity against mouse B16-F10 cells implanted in C57BL/6 mouse model assessed as CD3+ CD8+ T cell percentage in tumor at 20 mg/kg/day, ip co-administered with ACY-1215 for 14 days by flow cytometric analysis (reference value: 0.52 %)", "assay_type": "functional", "settings": "time 14 day"}, "[11]": {"assay": "Toxicity in C57BL/6 mouse model implanted with mouse B16-F10 cells assessed as morphological changes in liver at 20 mg/kg/day, ip administered for 14 days by H and E staining based analysis", "assay_type": "organism-based", "settings": "in vivo, 336 h, time 14 day"}, "[12]": {"assay": "Toxicity in C57 mouse assessed as myelosuppression by measuring MCV level at 20 mg/kg/day, IG administered for 14 days by heat map analysis", "assay_type": "organism-based", "settings": "in vivo, po, 336 h, time 14 day"}, "[13]": {"assay": "Toxicity in C57 mouse assessed as myelosuppression by measuring MCHC level at 20 mg/kg/day, IG administered for 14 days by heat map analysis", "assay_type": "organism-based", "settings": "in vivo, po, 336 h, time 14 day"}, "[14]": {"assay": "Toxicity in C57 mouse assessed as myelosuppression by measuring lymphocytes level at 20 mg/kg/day, IG administered for 14 days by heat map analysis", "assay_type": "organism-based", "settings": "in vivo, po, 336 h, time 14 day"}, "[15]": {"assay": "Toxicity in C57 mouse assessed as myelosuppression by measuring PDW level at 20 mg/kg/day, IG administered for 14 days by heat map analysis", "assay_type": "organism-based", "settings": "in vivo, po, 336 h, time 14 day"}, "[16]": {"assay": "Toxicity in C57 mouse assessed as change in ALT level at 20 mg/kg/day, IG administered for 14 days by heat map analysis", "assay_type": "organism-based", "settings": "in vivo, po, 336 h, time 14 day"}, "[17]": {"assay": "Toxicity in C57 mouse assessed as change in TBIL level at 20 mg/kg/day, IG administered for 14 days by heat map analysis", "assay_type": "organism-based", "settings": "in vivo, po, 336 h, time 14 day"}, "[18]": {"assay": "Toxicity in C57 mouse assessed as change in GLO level at 20 mg/kg/day, IG administered for 14 days by heat map analysis", "assay_type": "organism-based", "settings": "in vivo, po, 336 h, time 14 day"}, "[19]": {"assay": "Toxicity in C57 mouse assessed as change in UREA level at 20 mg/kg/day, IG administered for 14 days by heat map analysis", "assay_type": "organism-based", "settings": "in vivo, po, 336 h, time 14 day"}, "MCF7": {"system": "MCF7", "assay": "cells", "settings": "Homo sapiens, MCF7, 48 h"}}, "note": "The source made the active and inactive calls. No cut-off for these calls is given here."}
{"smiles": "COc1nc(-c2cccc(-c3ccccc3)c2C)ccc1CNCCCCCCC(=O)NO", "values": [{"measurement": "Activity", "setting": "Jurkat [1]", "value": "Active; Mild Cytotoxicity Observed"}, {"measurement": "inhibition", "setting": "[2]", "value": "Dose-dependent-effect"}, {"measurement": "inhibition", "setting": "[3]", "value": "inactive"}, {"measurement": "Activity", "setting": "Jurkat [4]", "value": "Active; Negligible Effect Observed"}, {"measurement": "Activity", "setting": "B16-F10 [5]", "value": "Active"}, {"measurement": "AUC(0-t) at 48 h", "setting": "[6]", "value": 1140, "unit": "ng·h/mL"}, {"measurement": "MRT inf", "setting": "[7]", "value": 7.12, "unit": "h"}, {"measurement": "Cmax", "setting": "[8]", "value": 194, "unit": "ng/mL"}, {"measurement": "CLz/F", "setting": "[9]", "value": 16.2, "unit": "mL/min/kg"}, {"measurement": "Activity", "setting": "B16-F10 [10]", "value": 6.39, "unit": "%"}, {"measurement": "Activity", "setting": "[11]", "value": "Non-toxic"}, {"measurement": "Activity", "setting": "[12]", "value": "Non-toxic"}, {"measurement": "Activity", "setting": "[13]", "value": "Non-toxic"}, {"measurement": "Activity", "setting": "[14]", "value": "Non-toxic"}, {"measurement": "Activity", "setting": "[15]", "value": "Non-toxic"}, {"measurement": "Activity", "setting": "[16]", "value": "Non-toxic"}, {"measurement": "Activity", "setting": "[17]", "value": "Non-toxic"}, {"measurement": "Activity", "setting": "[18]", "value": "Non-toxic"}, {"measurement": "Activity", "setting": "[19]", "value": "Non-toxic"}, {"measurement": "IC50", "setting": "MCF7", "value": "> 10", "unit": "µM"}]}
